Where two headings read alike, the source gives them in different places.
Columns and labels:
[1] = Stability of working solutions of PB1 and PB2; assay type: physicochemical
Procedure: All the above solutions were stored at −70°C.

[2] = Stability of PB1 and PB2 in human whole blood at room temperature or 4°C; details: clinical TDM whole blood, plasma by HPLC-MS/MS
Procedure: Moreover, the stability of PB1 and PB2 in whole blood was determined using redundant TDM whole-blood samples. A clinical whole-blood sample was obtained and immediately divided into 10 aliquots and placed at room temperature (25°C) or 4°C. At the designated time point, one of the aliquots was removed and immediately centrifuged to obtain 100 μL of a plasma sample. Then, all plasma samples were stored at −70°C until further analysis. Two parallel samples were tested at each storage condition, and the results were expressed as the percentage ratios of PB1 or PB2 concentrations measured at different time points to the initial PB1 or PB2 concentration.

[3] = Stability of PB1 and PB2 in human plasma under different storage conditions; details: human plasma, n = 3
Procedure: The stock solutions of the calibrators and quality control (QC) samples should be prepared separately in the same way. The PB stock solution for calibrators and QC samples was prepared in water (1% FA) at 400.48 μg/mL for PB1 and 40.84 μg/mL for PB2. Consequently, working solutions for construction of calibrators and QC were prepared by serially diluting the stock solution with a 1% aqueous solution of FA. The concentrations of the working solutions for calibrators were 10.01, 30.03, 50.05, 100.12, 150.18, and 200.24 μg/mL for PB1 and 1.02, 3.06, 5.10, 10.21, 15.31, and 20.42 μg/mL for PB2. The concentrations of working solutions for QCs were prepared at 20.02 μg/mL (LQC), 90.11 μg/mL (MQC), and 180.22 μg/mL (HQC) for PB1 and 2.04 μg/mL (LQC), 9.18 μg/mL (MQC), and 18.36 μg/mL (HQC) for PB2. The working solution of IS (10.00 μg/mL) was prepared using methanol. All the above solutions were stored at −70°C. The calibrators and QC samples were obtained by spiking 90 μL of blank plasma with 10 μL of working solution at the corresponding concentration. The standard curves were in the range of 1.00–20.02 μg/mL and 0.10–2.04 μg/mL for PB1 and PB2, respectively.
Typically, 100 μL of the plasma sample was mixed with 10 μL IS working solution, and then, 300 μL 0.1% FA in methanol was added to the sample for protein precipitation. The mixture was vortexed for 3 min and centrifuged in an Eppendorf 5415D microcentrifuge (Eppendorf, Hamburg, Germany) at 11,000 g rpm for 10 min. Subsequently, 200 μL of the supernatant was transferred into a clean polypropylene tube and diluted with 150 μL of 0.1% FA in water. The mixture solution was vortexed for 3 min and centrifuged at 11,000 rpm for 10 min using the same centrifuge. Finally, 200 μL of the supernatant was transferred into an injection bottle, and 10 μL was injected into the HPLC–MS/MS for analysis.
The stability of the working solutions of PB1 and PB2 was evaluated. The short-term stability and long-term stability of PB1 and PB2 in human plasma were evaluated under the following conditions: placed at room temperature or 4°C for 24 h, frozen and thawed three times, and stored at −70°C for 85 days. The stability evaluation was conducted for both LQC and HQC concentrations.

polymyxin B2 [PB2]
Stability of working solutions [1]: remained stable after storage at −70 °C for up to 7 days but not beyond 10 days

polymyxin B1 [PB1]
Stability of working solutions ([1]; working solutions in 1% aqueous formic acid at LQC and HQC concentrations, stored at −70°C): remained stable after storage at −70 °C for up to 7 days but not beyond 10 days
Concentration after storage in human blood ([2]; 4°C, 0 h (initial), parallel sample 1): 4690 ng/mL
Concentration after storage in human blood ([2]; 4°C, 0 h (initial), parallel sample 2): 4720 ng/mL
Concentration after storage in human blood ([2]; 4°C, 0.5 h, parallel sample 1): 4290 ng/mL
Concentration after storage in human blood ([2]; 4°C, 0.5 h, parallel sample 2): 4120 ng/mL
Concentration after storage in human blood ([2]; 4°C, 1 h, parallel sample 1): 4420 ng/mL
Concentration after storage in human blood ([2]; 4°C, 1 h, parallel sample 2): 4350 ng/mL
Concentration after storage in human blood ([2]; 4°C, 2 h, parallel sample 1): 5100 ng/mL
Concentration after storage in human blood ([2]; 4°C, 2 h, parallel sample 2): 4890 ng/mL
Concentration after storage in human blood ([2]; 4°C, 3 h, parallel sample 1): 5250 ng/mL
Concentration after storage in human blood ([2]; 4°C, 3 h, parallel sample 2): 5320 ng/mL
Concentration after storage in human blood ([2]; 4°C, 4 h, parallel sample 1): 5130 ng/mL
Concentration after storage in human blood ([2]; 4°C, 4 h, parallel sample 2): 4950 ng/mL
Concentration after storage in human blood ([2]; 4°C, 5 h, parallel sample 1): 4820 ng/mL
Concentration after storage in human blood ([2]; 4°C, 5 h, parallel sample 2): 4820 ng/mL
Concentration after storage in human blood ([2]; 4°C, 8 h, parallel sample 1): 4460 ng/mL
Concentration after storage in human blood ([2]; 4°C, 8 h, parallel sample 2): 4850 ng/mL
Concentration after storage in human blood ([2]; 4°C, 12 h, parallel sample 1): 4560 ng/mL
Concentration after storage in human blood ([2]; 4°C, 12 h, parallel sample 2): 4680 ng/mL
Concentration after storage in human blood ([2]; 4°C, 24 h, parallel sample 1): 4690 ng/mL
Concentration after storage in human blood ([2]; 4°C, 24 h, parallel sample 2): 5280 ng/mL
Concentration after storage in human blood ([2]; room temperature (25°C), 0 h (initial), parallel sample 1): 6890 ng/mL
Concentration after storage in human blood ([2]; room temperature (25°C), 0 h (initial), parallel sample 2): 6660 ng/mL
Concentration after storage in human blood ([2]; room temperature (25°C), 0.5 h, parallel sample 1): 6830 ng/mL
Concentration after storage in human blood ([2]; room temperature (25°C), 0.5 h, parallel sample 2): 6630 ng/mL
Concentration after storage in human blood ([2]; room temperature (25°C), 1 h, parallel sample 1): 6130 ng/mL
Concentration after storage in human blood ([2]; room temperature (25°C), 1 h, parallel sample 2): 6130 ng/mL
Concentration after storage in human blood ([2]; room temperature (25°C), 2 h, parallel sample 1): 6700 ng/mL
Concentration after storage in human blood ([2]; room temperature (25°C), 2 h, parallel sample 2): 6150 ng/mL
Concentration after storage in human blood ([2]; room temperature (25°C), 3 h, parallel sample 1): 7160 ng/mL
Concentration after storage in human blood ([2]; room temperature (25°C), 3 h, parallel sample 2): 6780 ng/mL
Concentration after storage in human blood ([2]; room temperature (25°C), 4 h, parallel sample 1): 6420 ng/mL
Concentration after storage in human blood ([2]; room temperature (25°C), 4 h, parallel sample 2): 6420 ng/mL
Concentration after storage in human blood ([2]; room temperature (25°C), 5 h, parallel sample 1): 6890 ng/mL
Concentration after storage in human blood ([2]; room temperature (25°C), 5 h, parallel sample 2): 6710 ng/mL
Concentration after storage in human blood ([2]; room temperature (25°C), 8 h, parallel sample 1): 6970 ng/mL
Concentration after storage in human blood ([2]; room temperature (25°C), 8 h, parallel sample 2): 6650 ng/mL
Concentration after storage in human blood ([2]; room temperature (25°C), 12 h, parallel sample 1): 7950 ng/mL
Concentration after storage in human blood ([2]; room temperature (25°C), 12 h, parallel sample 2): 8190 ng/mL
Concentration after storage in human blood ([2]; room temperature (25°C), 24 h, parallel sample 1): 7050 ng/mL
Concentration after storage in human blood ([2]; room temperature (25°C), 24 h, parallel sample 2): 6720 ng/mL
Stability in human plasma, RE ([3]; 4°C for 24 h, target PB1 2.00 / PB2 0.20 μg/mL (LQC)): +3.25%
Stability in human plasma, RE ([3]; 4°C for 24 h, target PB1 9.01 / PB2 0.92 μg/mL (MQC)): −7.38%
Stability in human plasma, RE ([3]; 4°C for 24 h, target PB1 18.02 / PB2 1.84 μg/mL (HQC)): −3.87%
Stability in human plasma, RE ([3]; room temp. for 24 h, target PB1 2.00 / PB2 0.20 μg/mL (LQC)): −11.99%
Stability in human plasma, RE ([3]; room temp. for 24 h, target PB1 9.01 / PB2 0.92 μg/mL (MQC)): +5.18%
Stability in human plasma, RE ([3]; room temp. for 24 h, target PB1 18.02 / PB2 1.84 μg/mL (HQC)): +6.19%
Stability in human plasma, RE ([3]; three freeze–thaw cycles, target PB1 2.00 / PB2 0.20 μg/mL (LQC)): −4.15%
Stability in human plasma, RE ([3]; three freeze–thaw cycles, target PB1 9.01 / PB2 0.92 μg/mL (MQC)): +3.09%
Stability in human plasma, RE ([3]; three freeze–thaw cycles, target PB1 18.02 / PB2 1.84 μg/mL (HQC)): +1.01%
Stability in human plasma, RE ([3]; −70°C for 85 days, target PB1 2.00 / PB2 0.20 μg/mL (LQC)): −2.50%
Stability in human plasma, RE ([3]; −70°C for 85 days, target PB1 9.01 / PB2 0.92 μg/mL (MQC)): +0.10%
Stability in human plasma, RE ([3]; −70°C for 85 days, target PB1 18.02 / PB2 1.84 μg/mL (HQC)): +1.95%
